Results as given in patent US10111873B1, “Dihydropyrimidinone derivatives” (KING SAUD UNIVERSITY, priority 2018, dated 2018).

Row | melting point [°C] | SMILES
1 | 150 to 152 | O=C1NC=C(C(=O)c2ccc(N3CCNCC3)cc2)C(c2ccccc2)N1 (stereo not shown) [DHPM-1, 4-phenyl-5-[4-(piperazin-1-yl)benzoyl]-3,4-dihydropyrimidin-2(1H)-one]
2 | 170 to 172 | O=C1NC=C(C(=O)c2ccc(N3CCNCC3)cc2)C(c2ccccc2[N+](=O)[O-])N1 (stereo not shown) [DHPM-2, 4-(2-Nitrophenyl)-5-[4-(piperazin-1-yl)benzoyl]-3,4-dihydropyrimidin-2(1H)-one]
3 | 175 to 177 | O=C1NC=C(C(=O)c2ccc(N3CCNCC3)cc2)C(c2ccc([N+](=O)[O-])cc2)N1 (stereo not shown) [DHPM-3, 4-(4-Nitrophenyl)-5-[4-(piperazin-1-yl)benzoyl]-3,4-dihydropyrimidin-2(1H)-one]
4 | 180 to 182 | O=C1NC=C(C(=O)c2ccc(N3CCNCC3)cc2)C(c2cccc([N+](=O)[O-])c2)N1 (stereo not shown) [DHPM-4, 4-(3-Nitrophenyl)-5-[4-(piperazin-1-yl)benzoyl]-3,4-dihydropyrimidin-2(1H)-one]
5 | 160 to 162 | O=C1NC=C(C(=O)c2ccc(N3CCNCC3)cc2)C(c2ccc(Cl)cc2)N1 (stereo not shown) [DHPM-5, 4-(4-Chlorophenyl)-5-[4-(piperazin-1-yl)benzoyl]-3,4-dihydropyrimidin-2(1H)-one]
6 | 120 to 122 | COc1ccccc1C1NC(=O)NC=C1C(=O)c1ccc(N2CCNCC2)cc1 (stereo not shown) [DHPM-6, 4-(2-methoxyphenyl)-5-[4-(piperazin-1-yl)benzoyl]-3,4-dihydropyrimidin-2(1H)-one]
7 | 210 to 212 | O=C1NC=C(C(=O)c2ccc(N3CCNCC3)cc2)C(c2ccc(O)cc2)N1 (stereo not shown) [DHPM-7, 4-(4-Hydroxyphenyl)-5-[4-(piperazin-1-yl)benzoyl]-3,4-dihydropyrimidin-2(1H)-one]
8 | 158 to 160 | O=C1NC=C(C(=O)c2ccc(N3CCNCC3)cc2)C(c2cccc(O)c2)N1 (stereo not shown) [DHPM-8, 4-(3-Hydroxyphenyl)-5-[4-(piperazin-1-yl)benzoyl]-3,4-dihydropyrimidin-2(1H)-one]
9 | 118 to 120 | COc1cccc(C2NC(=O)NC=C2C(=O)c2ccc(N3CCNCC3)cc2)c1 (stereo not shown) [DHPM-9, 4-(3-methoxyphenyl)-5-[4-(piperazin-1-yl)benzoyl]-3,4-dihydropyrimidin-2(1H)-one]
10 | 88 to 90 | CCOc1cccc(C2NC(=O)NC=C2C(=O)c2ccc(N3CCNCC3)cc2)c1 (stereo not shown) [DHPM-10, 4-(3-Ethoxyphenyl)-5-[4-(piperazin-1-yl)benzoyl]-3,4-dihydropyrimidin-2(1H)-one]
11 | 258 to 260 | O=C1NC=C(C(=O)c2ccc(N3CCOCC3)cc2)C(c2ccccc2)N1 (stereo not shown) [DHPM-11, 5-[4-(morpholin-4-yl)benzoyl]-4-phenyl-3,4-dihydropyrimidin-2(1H)-one]
12 | 198 to 200 | O=C1NC=C(C(=O)c2ccc(N3CCOCC3)cc2)C(c2ccccc2[N+](=O)[O-])N1 (stereo not shown) [DHPM-12, 5-[4-(morpholin-4-yl)benzoyl]-4-(2-nitrophenyl)-3,4-dihydropyrimidin-2(1H)-one]
13 | 202 to 204 | O=C1NC=C(C(=O)c2ccc(N3CCOCC3)cc2)C(c2ccc([N+](=O)[O-])cc2)N1 (stereo not shown) [DHPM-13, 5-[4-(morpholin-4-yl)benzoyl]-4-(4-nitrophenyl)-3,4-dihydropyrimidin-2(1H)-one]
14 | 205 to 207 | O=C1NC=C(C(=O)c2ccc(N3CCOCC3)cc2)C(c2cccc([N+](=O)[O-])c2)N1 (stereo not shown) [DHPM-14, 5-[4-(morpholin-4-yl)benzoyl]-4-(3-nitrophenyl)-3,4-dihydropyrimidin-2(1H)-one]
15 | 288 to 290 | O=C1NC=C(C(=O)c2ccc(N3CCOCC3)cc2)C(c2ccc(Cl)cc2)N1 (stereo not shown) [DHPM-15, 4-(4-chlorophenyl)-5-[4-(morpholin-4-yl)benzoyl]-3,4-dihydropyrimidin-2(1H)-one]
16 | 178 to 180 | COc1ccccc1C1NC(=O)NC=C1C(=O)c1ccc(N2CCOCC2)cc1 (stereo not shown) [DHPM-16, 4-(2-methoxyphenyl)-5-[4-(morpholin-4-yl)benzoyl]-3,4-dihydropyrimidin-2(1H)-one]
17 | 118 to 120 | O=C1NC=C(C(=O)c2ccc(N3CCOCC3)cc2)C(c2ccc(O)cc2)N1 (stereo not shown) [DHPM-17, 4-(4-hydroxyphenyl)-5-[4-(morpholin-4-yl)benzoyl]-3,4-dihydropyrimidin-2(1H)-one]
18 | 120 to 122 | O=C1NC=C(C(=O)c2ccc(N3CCOCC3)cc2)C(c2cccc(O)c2)N1 (stereo not shown) [DHPM-18, 4-(3-hydroxyphenyl)-5-[4-(morpholin-4-yl)benzoyl]-3,4-dihydropyrimidin-2(1H)-one]
19 | 200 to 202 | CCOc1ccc(C2NC(=O)NC=C2C(=O)c2ccc(N3CCOCC3)cc2)cc1 (stereo not shown) [DHPM-20, 4-(4-ethoxyphenyl)-5-[4-(morpholin-4-yl)benzoyl]-3,4-dihydropyrimidin-2(1H)-one]
